The results in this text go back to patent US10888089B2, “Methods and compositions for controlling fungus-growing ants” (UNIVERSITE PARIS EST CRETEIL VAL DE MARNE, priority 2016, dated 2021).

In test [1] the test system is laccase. Kind of test: Laccase inhibition (ABTS colorimetric method), fungus garden sample. In kind it is biochemical. As to conditions: anti-laccase activity, ABTS substrate, read-out: IC50 Leucophorus gongylophorus. The method, then:
(§1) Crushing was performed in mortars placed on ice, using pestles. […] After obtaining crushed matter of homogeneous texture, the whole was centrifuged. Centrifugation was performed at 4° C., 15,000 rpm for 20 min. For protein precipitation, the supernatant was 80% saturated with ammonium sulphate ((NH4)2SO4). After total dissolution of the ammonium sulphate, the solution obtained is placed at 4° C. for 12 hours. The solution was then centrifuged at a temperature of 4° C., at 15,000 rpm, for 20 min. The pellet obtained is redissolved in a minimum of cold distilled water and then dialysed against 5 litres of distilled water at 4° C. for 12 hours. The extract thus obtained constitutes the crude enzyme extract. These extracts were aliquoted and then stored at -20° C. […] Briefly, ABTS is diluted to 27.4 mg/L in […] buffer solution (pH 5.2). 150 μL of ABTS solution is incubated with 100 μL of test solution and then incubated for 30 min at 37° C. The measurement of OD at 405 nm is used to determine the amount of oxidised ABTS using Beer-Lambert's law (epsilon=36,000 mM). […] The method was published by Bourbonnais et al. in 1990 (Oxidation of non-phenolic substrates. An expanded role for laccase in lignin biodegradation. FEBS, 1990, 267, 99-102). […] The inhibitors selected for analysis are compounds having antioxidant capacity.

Test [2] has as its system laccase. Kind of test: Laccase inhibition (ABTS colorimetric method), ant sample. The conditions noted are these: anti-laccase activity, ABTS substrate, read-out: IC50 Acromyrmex octospinosus. Type of test: biochemical. How it is done: as §1
Test [3] concerns 5 actinomycete strains isolated from fungus-growing ants. Kind of test: Antibacterial activity using discs in Petri dishes, average of 5 actinomycete strains. Type of test: cell-based, Streptomyces, Tsukumurella and Gordonia. The method, then:
(§2) The general principle is to test in solid medium the culture of the strain in the presence of a paper disc impregnated with the molecule to be tested. For each molecule tested at least three dilutions were prepared. In the presence of a molecule, a halo, the diameter of which is related to the intensity of the inhibitory effect, appears around the paper disc. This approach provides a simple way to select antibacterial molecules and to determine the minimum inhibitory concentration (MIC) of bacterial growth.
(§3) Antibacterial activity can be measured in liquid medium (in a liquid bacterial culture) or in solid medium (on an agar Petri dish) by adding a known concentration of antibiotic. In liquid medium, inhibition is measured by an optical density (OD); in solid medium, growth inhibition is estimated by the diameter of the halo corresponding to the zone where no growth is observed.
(§4) From the isolates, a sample is taken. This is suspended in 1 mL of physiological saline solution without measuring OD.
(§5) Inoculation is performed with 100 μL of suspension using a spreader. For undiluted essential oil tests, a disc soaked in essential oil is placed in the centre of the dish. For dilutions (½; ⅕), both discs are placed in the same dish. Dilutions were prepared by diluting the essential oils in sunflower oil. A control dish was prepared and consists of an inoculate in the absence of essential oil. A second control, this time with a disc impregnated with sunflower oil, was also prepared to confirm the absence of an effect. All products were sterilised and the experiments were performed under a hood in sterile conditions.
(§6) After 4 days of growth, the inhibition diameters were measured.
This step made it possible to isolate, from ants belonging to the species Acromyrmex octospinosus, 15 actinomycete strains including 12 belonging to the genus Tsukumurella, two to the genus Streptomyces and one to the genus Gordonia. In total, 5 strains belonging to the genera Streptomyces, Tsukumurella and Gordonia were selected for the analysis of antibacterial substances.

The subject of another test is Streptomyces (NA 2B3). Kind of test: Antibacterial activity using discs in Petri dishes, strain Streptomyces NA2B3. In kind it is cell-based. The method, then: as §2, §3, §4, §5, §6
The subject of test [4] is laccase activity of Acromyrmex octospinosus and of Leucophorus gongylophorus. The experiment in a line: Laccase inhibition (ABTS), ant and fungus garden samples together. In kind it is biochemical. As to conditions: for anti-laccase activity (in words): data not shown. The method, then:
Crushing was performed in mortars placed on ice, using pestles. Ants (2 g) and fungus garden (2 g) were crushed in 10 mL of distilled water refrigerated at 4° C. After obtaining crushed matter of homogeneous texture, the whole was centrifuged. Centrifugation was performed at 4° C., 15,000 rpm for 20 min.
For protein precipitation, the supernatant was 80% saturated with ammonium sulphate ((NH4)2SO4). After total dissolution of the ammonium sulphate, the solution obtained is placed at 4° C. for 12 hours. The solution was then centrifuged at a temperature of 4° C., at 15,000 rpm, for 20 min. The pellet obtained is redissolved in a minimum of cold distilled water and then dialysed against 5 litres of distilled water at 4° C. for 12 hours. The extract thus obtained constitutes the crude enzyme extract. These extracts were aliquoted and then stored at −20° C.
Laccase activity was evaluated using 2,2′-azino-bis(3-ethylbenzthiazoline-6-sulphonic acid) (ABTS) as oxidation control substrate. Briefly, ABTS is diluted to 27.4 mg/L in Mcllvain buffer solution (pH 5.2). 150 μL of ABTS solution is incubated with 100 μL of test solution and then incubated for 30 min at 37° C. The measurement of OD at 405 nm is used to determine the amount of oxidised ABTS using Beer-Lambert's law (epsilon=36,000 mM).
The determination of laccase activity is based on a colorimetric method where the substrate ABTS (2,2′-azino-bis(3-ethylbenzthiazoline-6-sulphonic acid) in reduced form (colourless) is oxidised (green colour) in the presence of the enzyme. The method was published by Bourbonnais et al. in 1990 (Oxidation of non-phenolic substrates. An expanded role for laccase in lignin biodegradation. FEBS, 1990, 267, 99-102). To test the inhibition of laccase activity, the molecule tested is added to the reaction mixture in amounts ranging from 0.1 mM to 100 mM. The inhibitors selected for analysis are compounds having antioxidant capacity.

A value given as a limit tells only on which side of the number the result lay.

A word on the IC50: it is the concentration at which inhibition is half-maximal. Regarding `O=C1O[C@H]([C@@H](O)CO)C(O)=C1O` [Ascorbic acid], the IC50 with laccase [1] and in the test on laccase [2] was below 250 µM each time.
`Cc1ccc(C(C)C)cc1O` [Carvacrol] came in with an Average inhibition diameters in test [3] (Table 6, 20%) of 2.4 ± 0.3. For the same molecule, in the test with Streptomyces (NA 2B3) (Table 5, 20%), the inhibition diameter is given as 2.2 ± 0.3 cm.
With `O=CC=Cc1ccccc1` [Cinnamaldehyde], the Average inhibition diameters in test [3] (Table 6, 10%) is listed as 2.9 ± 0.6; in test [3] (Table 6, 20%), 4.5 ± 0.6. Besides, in the test on Streptomyces (NA 2B3) (Table 5, 20%), the inhibition diameter is on record as 3.0 ± 1.5 cm.
Regarding `CC[C@H]1OC(=O)[C@H](C)[C@@H](O[C@H]2C[C@@](C)(OC)[C@@H](O)[C@H](C)O2)[C@H](C)[C@@H](O[C@@H]2O[C@H](C)C[C@H](N(C)C)[C@H]2O)[C@](C)(O)C[C@@H](C)C(=O)[C@H](C)[C@@H](O)[C@]1(C)O` [Erythromycin, reference compound], the Average inhibition diameters in test [3] (Table 4, 10%) is 3.2 ± 0.4 cm; in test [3] (Table 4, 20%), 3.6 ± 0.4 cm; in test [3] (Table 6, 10%), 3.2 ± 0.4; in test [3] (Table 6, 20%), 3.6 ± 0.4. For the same molecule, the inhibition diameter amounted to 2.2 ± 0.3 cm in the test on Streptomyces (NA 2B3) (Table 3, 10%); 3.6 ± 0.4 cm with Streptomyces (NA 2B3) (Table 3, 20%); 3.5 ± 0.5 cm in the test on Streptomyces (NA 2B3) (Table 5, 10%); 4.3 ± 0.3 cm in the test with Streptomyces (NA 2B3) (Table 5, 20%).
The molecule `C=CCc1ccc(O)c(OC)c1` [Eugenol] displayed an Average inhibition diameters in test [3] (Table 6, 20%) of 2.9 ± 0.7. Besides, the “anti-laccase activity (in words)” value in test [4] is reported as “anti-laccase activity was observed”.
As for `COc1cc(/C=C/C(=O)O)ccc1O` [Ferulic acid], the IC50 in the test with laccase [1] is below 50 µM; with laccase [2], below 100 µM.
Taken in the same sequence, the figures for `O=C(O)c1cc(O)c(O)c(O)c1` [Gallic acid] were below 50 µM and below 50 µM.
Regarding `N[C@@H](CS)C(=O)O` [L-Cysteine], the concentration for half-maximal inhibition (IC50) with laccase [1] and in the test on laccase [2] was below 250 µM in each case. For the same molecule, the “inhibition of laccase activity” value in test [4] (at concentrations above 0.5 mM (FIG. 1)) is “more than 80%”.
With `O=S(O)(O)=S` [Sodium thiosulfate], the IC50 in the test with laccase [1] and with laccase [2] was below 250 µM in each case.
Turning to `COc1cc(C(=O)O)cc(OC)c1O` [Syringic acid], the concentration for half-maximal inhibition (IC50) in the test with laccase [1] was below 100 µM; in the test on laccase [2], below 250 µM.
In turn, `Cc1ccc(C(C)C)c(O)c1` [Thymol] came in with an Average inhibition diameters in test [3] (Table 6, 20%) of 2.2 ± 0.3. Further, in the test on Streptomyces (NA 2B3) (Table 5, 20%), the inhibition diameter was determined as 1.7 ± 0.8 cm. In test [4], the “anti-laccase activity (in words)” value is “anti-laccase activity was observed”.
